Here are results for 13 compounds from PubChem BioAssay (NCI).

The structures appear in SMILES notation.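 48-hour exposure; five concentrations; linearly interpolated endpoints. At the TGI there is no net growth.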 Bounds are passed on as bounds.

Holding throughout (assay): NCI-60 cell line screen, 48 h
For assay [1], the system named is SK-MEL-5 melanoma.
Assay [2] concerns SNB-75 CNS.
Assay [3] has as its system HOP-92 NSCLC.
The test system of assay [4] is SK-MEL-2 melanoma.
Assay [5] deals with NCI-H226 lung.
Assay [6] has as its system EKVX NSCLC.
The test system of assay [7] is MDA-MB-435.
The test system of assay [8] is SF-268 CNS.
Assay [9] relates to ACHN renal.
Assay [10] concerns NCI-H522 lung.
Assay [11] has as its system DU-145 prostate.

On to `C[C@]12[C@@H]3CC[C@H]1[C@@H](OC(=O)Nc1cc([N+](=O)[O-])cc([N+](=O)[O-])c1)C(=O)N2CC3`, for which the TGI in assay [1], in assay [2], in assay [3], in assay [4], in [5] and in [6] was greater than 100 µM each time. Further, the TGI in assay [7], in [8], in [9], in assay [10] and in [11] was greater than 100 µM in each case.

As to `O=C(c1cccc(C(=O)c2ccc3c4c(cccc24)C(=O)N(c2ccccc2)C3=O)c1)c1ccc2c3c(cccc13)C(=O)N(c1ccccc1)C2=O`, the TGI in assay [1], in [2], in [3], in assay [5], in assay [6] and in [7] was greater than 100 µM each time. For the same compound, the TGI in [8], in assay [9], in assay [10] and in assay [11] was greater than 100 µM each time.

On to `O=C1/C(=C/c2ccc(Cl)cc2)N=C(c2ccccc2)N1c1ccc(S(=O)(=O)Nc2nccs2)cc1`, for which the TGI in assay [1] is 66.6 µM; in [2] it was greater than 100 µM; in assay [3], 90.7 µM; in [4], 47.3 µM; in assay [5], greater than 100 µM; in assay [6], greater than 100 µM. Moreover, the TGI was 76.4 µM in assay [7], greater than 100 µM in assay [8], greater than 100 µM in [9] and greater than 100 µM in assay [11].

As for `Cc1c(C)c2c(c(N)c1C#N)C(=O)N(CCN1CCNCC1)C2=O`, the TGI in assay [2] was 77 µM; in [3], greater than 100 µM; in assay [4], greater than 100 µM; in assay [5], greater than 100 µM; in assay [6], greater than 100 µM; in assay [7], greater than 100 µM. Moreover, the TGI in [8] is greater than 100 µM; in assay [9] it was greater than 100 µM; in assay [10] it was 97.3 µM; in assay [11] it was greater than 100 µM.

Regarding `COc1c(O)c2c(=O)cc(OC)c3c4c(OC)cc(=O)c5c(O)c(OC)c6c(c(c1C(C(C)=O)C6C(C)O)c23)c54` (stereo not drawn), the TGI was determined as 1.42 µM in assay [2]; 1.4 µM in [3]; 3.65 µM in [5]; 4.55 µM in assay [6]; 3.1 µM in assay [7]; 3.92 µM in [8]. In addition, the TGI in assay [9] worked out at 1.09 µM; in assay [10], 0.634 µM; in [11] it was 1.74 µM.

Consider `CC(=O)OC1CC[C@]2(C)C3CC[C@@]4(C)C(CCC4[C@H](C)CCCC(C)C)[C@@H]3CCC2(Br)C1` (stereo partly drawn), for which the TGI in assay [2] was greater than 50 µM; in [3], greater than 50 µM; in assay [5], greater than 50 µM; in assay [6], greater than 50 µM; in assay [7] it was 19.4 µM; in assay [8] it was 28.1 µM. Also, the TGI is 20.2 µM in assay [9], 29.1 µM in assay [10] and greater than 50 µM in [11].

Take `CCOC(=O)c1cnc(-n2[nH]c3c(c2=O)CCCC3)[nH]c1=O`: the TGI was greater than 100 µM in assay [1]; 57.6 µM in assay [3]; greater than 100 µM in assay [4]; greater than 100 µM in assay [5]; greater than 100 µM in [6]; greater than 100 µM in [7]. Moreover, the TGI in assay [8], in assay [9], in assay [10] and in assay [11] was greater than 100 µM each time.

With `Cc1ccc(S(=O)(=O)Oc2nc3ccccc3nc2N(S(=O)(=O)c2ccc(C)cc2)S(=O)(=O)c2ccc(C)cc2)cc1`, the TGI in assay [1], in assay [2], in assay [4], in assay [5], in assay [6] and in [7] was greater than 100 µM each time. For the same compound, the TGI in assay [8], in [9], in [10] and in assay [11] was greater than 100 µM in each case.

Consider `NNc1[nH]c(=S)[nH]c1C(N)=O`, for which the TGI in [1], in assay [2], in assay [4], in assay [5], in assay [6] and in [7] was greater than 100 µM throughout. The TGI in [8], in assay [10] and in assay [11] was greater than 100 µM throughout.

Regarding `C=C(Cl)C(=C)CCC(Cl)C(C)C` (stereo not drawn), the TGI in assay [1], in [3], in assay [4], in assay [5], in [6] and in [7] was greater than 100 µM in each case. Moreover, the TGI in assay [8], in assay [9], in assay [10] and in assay [11] was greater than 100 µM in each case.

For the compound `Nc1nc(Cl)c2nnn(CC3CCC(CO)C3)c2n1` (stereo not drawn), the TGI in [1], in [2], in assay [3], in assay [4], in assay [5] and in assay [6] was greater than 100 µM each time. Besides, the TGI in [7], in assay [8], in assay [9] and in assay [11] was greater than 100 µM each time.

`O=C=NCCCCCCN1C(=O)N2C(c3ccccc3)N(CCCCCCN=C=O)C(=O)N2C1c1ccccc1` (stereo not drawn): the TGI in [1], in assay [2], in assay [3], in [4], in assay [5] and in assay [6] was greater than 100 µM in each case. In addition, the TGI in [7], in [8], in [9] and in [11] was greater than 100 µM in each case.

Consider `Clc1nc2n(c1/C=C/c1cccs1)CCS2`, for which the TGI in [1] was 32.9 µM; in assay [2] it was greater than 100 µM; in assay [4], greater than 100 µM; in assay [5], greater than 100 µM; in assay [6] it was greater than 100 µM; in assay [7] it was greater than 100 µM. For the same compound, the TGI in assay [8], in [9], in [10] and in assay [11] was greater than 100 µM in each case.
